{
  "source": "patent US20190327974A1",
  "about": "“SYNERGISTS FOR IMPROVED PESTICIDES” (priority 2017, published 2019)",
  "key": {"[1]": {"tested_on": "Ostrinia nubilalis (European corn borer)", "test": "CPE combined with boronic acid derivatives on corn leaves", "type": "in vivo", "details": "boronic acid alone 0.2 mg/ml, 12 larvae/box", "description": "(§1) Treatments were performed by spraying a volume of mixture corresponding to 200 l/ha. 4 boxes/condition.\n(§2) Drying 1 h at 20° C.; Deposit of three leaf fragments per box on water agar (4 box/condition); Infection of each leaf fragment with 4 Ostrinia nubilalis (12 larvae/box); Incubation 18° C./28° C. […] The percentage of mortality was calculated for each assessment times. Statistical analysis of the data was performed with XLSTAT® software (ANOVAs followed by Newman-Keuls tests with a threshold of 5%, see Table below)."}, "[2]": {"tested_on": "Ostrinia nubilalis (European corn borer)", "test": "Efficacy of chlorpyrifos-ethyl with boronic acids on European corn borer on corn leaves", "type": "in vivo", "details": "boronic acid alone 0.2 mg/ml, 12 larvae/box", "description": "as §1, §2"}, "[3]": {"tested_on": "Lucilia cuprina larvae, laboratory susceptible strain (LS)", "test": "Blowfly larvae pupation bioassay, laboratory strain, diazinon", "type": "in vivo", "description": "Inhibitor efficacy was determined by treating larvae with diazinon over a range of concentrations, in the presence or absence of the compounds at constant concentrations, and comparing pupation rates.\nTwo strains of L. cuprina were used: 1) a laboratory reference drug-susceptible strain, LS, derived from collections in the Australian Capital Territory over 40 years ago, with no history of exposure to insecticides; and 2) a field-collected strain, Tara, resistant to diazinon and diflubenzuron (Levot, G. W. & Sales, N. New high level resistance to diflubenzuron detected in the Australian sheep blowfly, Lucilia cuprina (Wiedemann) (Diptera: Calliphoridae). Gen. Appl. Entomol. 31, 43-46 (2002)). The LcαE7 gene was sequenced in each of the strains. Briefly, genomic DNA was prepared from 20 adult female flies from each strain using the DNeasy Blood and Tissue kit (Qiagen). PCR was performed with primers specific to the LcαE7 gene, and the product was cloned into a pGEM-T EASY vector (Promega). Eight clones of the susceptible strain and 10 clones of the resistant strain were sequenced using M13 forward and reverse primers.\nEach experiment utilized 50 larvae at each diazinon/malathion concentration. Experiments were replicated three times for diazinon, and twice for malathion. The insecticidal effects were defined by measuring the pupation rate. […]"}, "[4]": {"tested_on": "panel of 26 human serine or threonine proteases", "test": "Protease selectivity panel, summary over the panel", "type": "biochemical", "details": "100 μM compound", "description": "Test compounds were dissolved in 100% DMSO to make 10 mM stock. Final compound concentration in assay is […]. Compounds were tested in duplicate wells at single concentration and the final concentration of DMSO in all assays was kept at 1%. Five reference compounds, AEBSF, Carfilzomib, Granzyme B Inhibitor II, Dec-RVKR-CMK, and Teneligliptin hydrobromide, were tested in an identical manner with 8 concentration points at 5× dilutions."}, "[5]": {"biological_target": "bacterial AmpC β-lactamase (Escherichia coli, UniProt P00811)", "sequence (P00811 20-377)": "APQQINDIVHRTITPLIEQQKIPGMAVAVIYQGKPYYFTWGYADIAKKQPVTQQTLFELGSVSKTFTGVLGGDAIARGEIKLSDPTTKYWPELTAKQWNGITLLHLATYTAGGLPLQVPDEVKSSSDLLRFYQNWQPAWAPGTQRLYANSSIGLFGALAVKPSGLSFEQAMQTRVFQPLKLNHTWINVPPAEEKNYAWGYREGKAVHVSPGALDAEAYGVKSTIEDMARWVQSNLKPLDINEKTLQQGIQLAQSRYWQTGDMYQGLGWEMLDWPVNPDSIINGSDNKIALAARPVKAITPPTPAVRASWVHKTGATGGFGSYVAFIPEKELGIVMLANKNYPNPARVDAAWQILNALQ", "test": "AmpC β-lactamase selectivity", "type": "biochemical", "description": "To characterize the selectivity of boronic acids 1 to 5, they were assayed against AChE, the target of OP and carbamate insecticides (Table 1) as well as trypsin and bacterial AmpC β-lactamase. […] The toxicity of the hits against two human cell lines was further assessed.\nTo characterize the selectivity of boronic acids 1 to 5, they were assayed against the target of OP insecticides, AChE, as well as trypsin and bacterial AmpC β-lactamase (Table 1). AChE and αE7 are homologous, sharing the α/β-hydrolase fold and the same catalytic machinery, however the topology of their binding pockets is dissimilar (Jackson, C. J. et al. Structure and function of an insect α-carboxylesterase (αEsterase7) associated with insecticide resistance. Proc. Natl. Acad. Sci. U.S.A. 110, 10177-82 (2013) and Correy, G. J. et al. Mapping the Accessible Conformational Landscape of an Insect Carboxylesterase Using Conformational Ensemble Analysis and Kinetic Crystallography. Structure 24, 1-11 (2016).). Both trypsin and AmpC β-lactamase contain an activated serine nucleophile and oxyanion hole, however trypsin contains a serine-histidine-aspartic acid (Hedstrom, L. Serine protease mechanism and specificity. Chem. Rev. 102, 4501-4523 (2002).) while AmpC β-lactamase contains a serine-tyrosine-lysine catalytic triad (Dubus, A., et al. The roles of residues Tyr150, Glu272, and His314 in class C β-lactamases. Proteins Struct. Funct. Genet. 25, 473-485 (1996).)."}},
  "data": [
    {"compound": "OB(O)c1cc(Br)cc(N2CCOCC2)c1", "note": "[Compound 3.1]", "values": [
      {"measurement": "Evaluation of Larvae number, Mean", "setting": "[1]; 1 DAT", "value": 12},
      {"measurement": "Evaluation of Larvae number, Mean", "setting": "[1]; 3 DAT", "value": 12},
      {"measurement": "Evaluation of Larvae number, Mean", "setting": "[1]; 6 DAT", "value": 8.3},
      {"measurement": "Larvae number, mean", "setting": "[2]; 1 DAT", "value": 12},
      {"measurement": "Larvae number, mean", "setting": "[2]; 3 DAT", "value": 12},
      {"measurement": "Larvae number, mean", "setting": "[2]; 6 DAT", "value": 8.3},
      {"measurement": "reduction of diazinon EC50 compared to diazinon only control", "setting": "[3]", "value": 5.7, "unit": "fold"}
    ]},
    {"compound": "OB(O)c1cc(Br)cc(N2CCCC2)c1", "note": "[Compound 3]", "values": [
      {"measurement": "inhibition across the panel of 26 human proteases (in words)", "setting": "[4]", "value": "only 3 of the 26 proteases were inhibited by more than 50%"},
      {"measurement": "Ki", "setting": "[5]", "value": 0.06, "unit": "µM"}
    ]}
  ]
}
